Reference: ChEMBL document CHEMBL3885861, “Open TG-GATES”

Organism: Rattus norvegicus
Assay: Open TG-GATES - Regimen: Single
Assay type: toxicity, organism-based, Sprague-Dawley
Set-up: regimen Single, gender Male, age 6 weeks
Details: in vivo, po, route gavage; for APTT / Bas / Eos / Fbg / Hb / Ht / Lym / MCH / MCHC / MCV / Mono / Neu / PT / Plat / RBC / Ret / WBC: tissue Blood; for KIDNEY_L / KIDNEY_R / KIDNEY_TOTAL: tissue Kidney; for LIVER: tissue Liver; for A/G / ALP / ALT / AST / BUN / CRE / Ca / Cl / DBIL / GLC / IP / K / LDH / Na / PL / RALB / TBIL / TC / TG / TP / gamma-GTP: tissue Plasma
[1] = 150 mg/kg, 3 h, dose level Middle
[2] = 150 mg/kg, 6 h, dose level Middle
[3] = 150 mg/kg, 9 h, dose level Middle
[4] = 150 mg/kg, 24 h, dose level Middle
[5] = 500 mg/kg, 3 h, dose level High
[6] = 500 mg/kg, 6 h, dose level High
[7] = 500 mg/kg, 9 h, dose level High
[8] = 500 mg/kg, 24 h, dose level High

## CN1C(=O)OC(C)(C)C1=O [TRIMETHADIONE]
[1]
  TERMINAL_BW: 208.1 g
  APTT: 15.9 s
  Bas: 0%
  Eos: 0.6%
  Fbg: 262.2 mg/dL
  Hb: 13.4 g/dL
  Ht: 40.4%
  Lym: 78.8%
  MCH: 21.4 pg
  MCHC: 33.2%
  MCV: 64.6 fL
  Mono: 2.4%
  Neu: 17.2%
  PT: 13.5 s
  Plat: 114.9 x10_4/uL
  RBC: 625.4 x10_4/ul
  Ret: 7.7%
  WBC: 81.5 x10_2/uL
  KIDNEY_L: 0.9 g
  KIDNEY_R: 0.9 g
  KIDNEY_TOTAL: 1.8 g
  LIVER: 9.1 g
  A/G: 0.9
  ALP: 1472.2 IU/L
  ALT: 38.4 IU/L
  AST: 70.6 IU/L
  BUN: 10 mg/dL
  CRE: 0.2 mg/dL
  Ca: 10.6 mg/dL
  Cl: 108 meq/L
  DBIL: 0.004 mg/dL
  GLC: 177.8 mg/dL
  IP: 8.3 mg/dL
  K: 4.2 meq/L
  LDH: 106 IU/L
  Na: 141 meq/L
  PL: 144.4 mg/dL
  RALB: 2.5 g/dL
  TBIL: 0.056 mg/dL
  TC: 75 mg/dL
  TG: 82 mg/dL
  TP: 5.3 g/dL
  gamma-GTP: 1 IU/L
[2]
  TERMINAL_BW: 209 g
  APTT: 16.3 s
  Bas: 0.2%
  Eos: 1%
  Fbg: 267 mg/dL
  Hb: 13.4 g/dL
  Ht: 40.1%
  Lym: 80.8%
  MCH: 21.7 pg
  MCHC: 33.3%
  MCV: 65.3 fL
  Mono: 2.4%
  Neu: 15.2%
  PT: 13.8 s
  Plat: 126.8 x10_4/uL
  RBC: 614.2 x10_4/ul
  Ret: 8.4%
  WBC: 94.5 x10_2/uL
  KIDNEY_L: 0.9 g
  KIDNEY_R: 0.9 g
  KIDNEY_TOTAL: 1.8 g
  LIVER: 8.6 g
  A/G: 0.9
  ALP: 1642.2 IU/L
  ALT: 36.2 IU/L
  AST: 72.2 IU/L
  BUN: 8.6 mg/dL
  CRE: 0.2 mg/dL
  Ca: 10.6 mg/dL
  Cl: 107.4 meq/L
  DBIL: 0.004 mg/dL
  GLC: 175.8 mg/dL
  IP: 8.9 mg/dL
  K: 4.3 meq/L
  LDH: 79.4 IU/L
  Na: 140.6 meq/L
  PL: 139.4 mg/dL
  RALB: 2.4 g/dL
  TBIL: 0.062 mg/dL
  TC: 76 mg/dL
  TG: 54.6 mg/dL
  TP: 5.2 g/dL
  gamma-GTP: 1 IU/L
[3]
  TERMINAL_BW: 204.4 g
  APTT: 17.8 s
  Bas: 0%
  Eos: 1%
  Fbg: 276 mg/dL
  Hb: 13.2 g/dL
  Ht: 39.8%
  Lym: 76%
  MCH: 21.7 pg
  MCHC: 33.2%
  MCV: 65.5 fL
  Mono: 2.2%
  Neu: 20.8%
  PT: 14 s
  Plat: 119.5 x10_4/uL
  RBC: 608.8 x10_4/ul
  Ret: 8.3%
  WBC: 84 x10_2/uL
  KIDNEY_L: 0.9 g
  KIDNEY_R: 0.9 g
  KIDNEY_TOTAL: 1.8 g
  LIVER: 7.8 g
  A/G: 0.9
  ALP: 1417.8 IU/L
  ALT: 33.8 IU/L
  AST: 72.2 IU/L
  BUN: 7.2 mg/dL
  CRE: 0.2 mg/dL
  Ca: 10.3 mg/dL
  Cl: 109.8 meq/L
  DBIL: 0 mg/dL
  GLC: 164.4 mg/dL
  IP: 9.9 mg/dL
  K: 3.9 meq/L
  LDH: 118.2 IU/L
  Na: 142.4 meq/L
  PL: 137.4 mg/dL
  RALB: 2.5 g/dL
  TBIL: 0.066 mg/dL
  TC: 74.4 mg/dL
  TG: 32.4 mg/dL
  TP: 5.3 g/dL
  gamma-GTP: 1 IU/L
[4]
  TERMINAL_BW: 217.7 g
  APTT: 20.8 s
  Bas: 0%
  Eos: 1%
  Fbg: 279.8 mg/dL
  Hb: 13.8 g/dL
  Ht: 41.1%
  Lym: 78.2%
  MCH: 21.7 pg
  MCHC: 33.5%
  MCV: 64.9 fL
  Mono: 2.6%
  Neu: 18%
  PT: 13.4 s
  Plat: 112.6 x10_4/uL
  RBC: 634.2 x10_4/ul
  Ret: 6.8%
  WBC: 104 x10_2/uL
  KIDNEY_L: 0.9 g
  KIDNEY_R: 0.9 g
  KIDNEY_TOTAL: 1.9 g
  LIVER: 9.6 g
  A/G: 0.9
  ALP: 2022.8 IU/L
  ALT: 50 IU/L
  AST: 81 IU/L
  BUN: 15.4 mg/dL
  CRE: 0.2 mg/dL
  Ca: 10.7 mg/dL
  Cl: 104.6 meq/L
  DBIL: 0.006 mg/dL
  GLC: 171.6 mg/dL
  IP: 7.9 mg/dL
  K: 4.3 meq/L
  LDH: 116.2 IU/L
  Na: 143 meq/L
  PL: 148.2 mg/dL
  RALB: 2.6 g/dL
  TBIL: 0.056 mg/dL
  TC: 76.4 mg/dL
  TG: 83 mg/dL
  TP: 5.6 g/dL
  gamma-GTP: 1 IU/L
[5]
  TERMINAL_BW: 212 g
  APTT: 16.8 s
  Bas: 0%
  Eos: 0.8%
  Fbg: 267.8 mg/dL
  Hb: 12.7 g/dL
  Ht: 38.3%
  Lym: 79.2%
  MCH: 21.5 pg
  MCHC: 33.2%
  MCV: 64.8 fL
  Mono: 2.4%
  Neu: 17%
  PT: 14 s
  Plat: 113.4 x10_4/uL
  RBC: 591.4 x10_4/ul
  Ret: 8.8%
  WBC: 80.3 x10_2/uL
  KIDNEY_L: 1 g
  KIDNEY_R: 0.9 g
  KIDNEY_TOTAL: 1.9 g
  LIVER: 9.1 g
  A/G: 0.9
  ALP: 1375.2 IU/L
  ALT: 39.6 IU/L
  AST: 70.6 IU/L
  BUN: 8.6 mg/dL
  CRE: 0.2 mg/dL
  Ca: 10.5 mg/dL
  Cl: 107.2 meq/L
  DBIL: 0.002 mg/dL
  GLC: 174.2 mg/dL
  IP: 8.8 mg/dL
  K: 4.2 meq/L
  LDH: 108 IU/L
  Na: 139.4 meq/L
  PL: 150.4 mg/dL
  RALB: 2.4 g/dL
  TBIL: 0.058 mg/dL
  TC: 84.2 mg/dL
  TG: 60.6 mg/dL
  TP: 5.2 g/dL
  gamma-GTP: 1 IU/L
[6]
  TERMINAL_BW: 209.4 g
  APTT: 16.1 s
  Bas: 0.2%
  Eos: 1.2%
  Fbg: 280.2 mg/dL
  Hb: 12.9 g/dL
  Ht: 38.9%
  Lym: 79.6%
  MCH: 21.1 pg
  MCHC: 33.1%
  MCV: 63.7 fL
  Mono: 1.6%
  Neu: 17%
  PT: 14.1 s
  Plat: 121.7 x10_4/uL
  RBC: 611.6 x10_4/ul
  Ret: 8.2%
  WBC: 94.3 x10_2/uL
  KIDNEY_L: 1 g
  KIDNEY_R: 0.9 g
  KIDNEY_TOTAL: 1.9 g
  LIVER: 8.5 g
  A/G: 0.9
  ALP: 1302 IU/L
  ALT: 31 IU/L
  AST: 66.8 IU/L
  BUN: 8.2 mg/dL
  CRE: 0.2 mg/dL
  Ca: 10.6 mg/dL
  Cl: 107.2 meq/L
  DBIL: 0 mg/dL
  GLC: 173.2 mg/dL
  IP: 9.4 mg/dL
  K: 4.1 meq/L
  LDH: 72 IU/L
  Na: 141 meq/L
  PL: 139.2 mg/dL
  RALB: 2.4 g/dL
  TBIL: 0.058 mg/dL
  TC: 80.2 mg/dL
  TG: 35.8 mg/dL
  TP: 5.2 g/dL
  gamma-GTP: 1.4 IU/L
[7]
  TERMINAL_BW: 209 g
  APTT: 15.6 s
  Bas: 0%
  Eos: 0.8%
  Fbg: 253.2 mg/dL
  Hb: 12.6 g/dL
  Ht: 37.9%
  Lym: 75.2%
  MCH: 21.4 pg
  MCHC: 33.4%
  MCV: 64.3 fL
  Mono: 1.8%
  Neu: 21.8%
  PT: 14.5 s
  Plat: 117.7 x10_4/uL
  RBC: 589.4 x10_4/ul
  Ret: 8%
  WBC: 81.5 x10_2/uL
  KIDNEY_L: 1 g
  KIDNEY_R: 1 g
  KIDNEY_TOTAL: 2 g
  LIVER: 8.2 g
  A/G: 0.9
  ALP: 1539.2 IU/L
  ALT: 29 IU/L
  AST: 65.4 IU/L
  BUN: 7.6 mg/dL
  CRE: 0.2 mg/dL
  Ca: 10.2 mg/dL
  Cl: 105.8 meq/L
  DBIL: 0 mg/dL
  GLC: 158.4 mg/dL
  IP: 10.3 mg/dL
  K: 3.8 meq/L
  LDH: 69.4 IU/L
  Na: 140.6 meq/L
  PL: 127.8 mg/dL
  RALB: 2.4 g/dL
  TBIL: 0.056 mg/dL
  TC: 67.4 mg/dL
  TG: 28.2 mg/dL
  TP: 5.1 g/dL
  gamma-GTP: 1.2 IU/L
[8]
  TERMINAL_BW: 215.3 g
  APTT: 17.7 s
  Bas: 0%
  Eos: 0.8%
  Fbg: 286.8 mg/dL
  Hb: 13.6 g/dL
  Ht: 40.5%
  Lym: 78%
  MCH: 21.1 pg
  MCHC: 33.6%
  MCV: 62.7 fL
  Mono: 2.6%
  Neu: 18.4%
  PT: 13.8 s
  Plat: 129.1 x10_4/uL
  RBC: 646.2 x10_4/ul
  Ret: 6.9%
  WBC: 101.5 x10_2/uL
  KIDNEY_L: 0.9 g
  KIDNEY_R: 1 g
  KIDNEY_TOTAL: 1.9 g
  LIVER: 9.7 g
  A/G: 0.9
  ALP: 1799.8 IU/L
  ALT: 49.4 IU/L
  AST: 82.2 IU/L
  BUN: 13 mg/dL
  CRE: 0.2 mg/dL
  Ca: 10.6 mg/dL
  Cl: 101.6 meq/L
  DBIL: 0.006 mg/dL
  GLC: 165.2 mg/dL
  IP: 7.4 mg/dL
  K: 3.9 meq/L
  LDH: 96.8 IU/L
  Na: 144 meq/L
  PL: 137.2 mg/dL
  RALB: 2.6 g/dL
  TBIL: 0.046 mg/dL
  TC: 75.6 mg/dL
  TG: 99.4 mg/dL
  TP: 5.6 g/dL
  gamma-GTP: 1 IU/L
